Active and inactive are the calls of the source.

Experiment [1] deals with BJ. In words: BJ-TERT-LT-ST fibroblast viability loss – cell-based, RAS-independent, luminescence, dose response (AID 1935).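 Note: BJ fibroblasts immortalized with TERT plus LT and ST oncogenes.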 The format is functional. As to conditions: Homo sapiens.
Experiment [2] concerns BJ. In words: growth inhibition of engineered Ras-driven BJ cells – cell-based, alamar blue fluorescence, cherrypicked samples, dose response (AID 2631).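 Note: confirmatory dose-response assay in RAS-dependent BJ fibroblasts engineered with TERT, LT and ST, with cytotoxicity read by fluorescence.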 The experiment is classed as functional. As to conditions: Homo sapiens. (The colour change of resazurin is a common sign of viable cells or microbes.)
The nature of experiment [3]: general mammalian cell viability loss – inhibitor set, cherry-pick, set 2, cytotoxicity control for miR-122 modulator project, dose response (AID 720697). The experiment is classed as functional, cell-based.
Experiment [4] has as its target Dual specificity protein phosphatase 3 (Homo sapiens, UniProt P51452). In words: VHR1 phosphatase inhibitors, primary screen, biochemical, absorbance, uHTS (AID 1654).
The nature of experiment [5]: cytotoxicity toward MDA-MB-231 breast cancer cells – cell-based, CellTiter-Glo luminescence, cherry-pick, cytotoxicity control for RAD54 inhibitor project, dose response (AID 651692). The format is functional. For orientation: ATP-based viability assays read luminescence as a measure of living cells.
Experiment [6] addresses Protein disulfide-isomerase A6 (Homo sapiens, UniProt Q15084). The experiment can be described thus: reduced insulin turbidity driven by ERp5 (PDIA6) – biochemical, absorbance 650 nm, cherry-picked samples, dose response (AID 720566).
In experiment [7] the target is T1, 1-phosphatidylinositol 4,5-bisphosphate phosphodiesterase beta-3 (Homo sapiens, UniProt Q01970).
T1 sequence (Q01970 whole entry): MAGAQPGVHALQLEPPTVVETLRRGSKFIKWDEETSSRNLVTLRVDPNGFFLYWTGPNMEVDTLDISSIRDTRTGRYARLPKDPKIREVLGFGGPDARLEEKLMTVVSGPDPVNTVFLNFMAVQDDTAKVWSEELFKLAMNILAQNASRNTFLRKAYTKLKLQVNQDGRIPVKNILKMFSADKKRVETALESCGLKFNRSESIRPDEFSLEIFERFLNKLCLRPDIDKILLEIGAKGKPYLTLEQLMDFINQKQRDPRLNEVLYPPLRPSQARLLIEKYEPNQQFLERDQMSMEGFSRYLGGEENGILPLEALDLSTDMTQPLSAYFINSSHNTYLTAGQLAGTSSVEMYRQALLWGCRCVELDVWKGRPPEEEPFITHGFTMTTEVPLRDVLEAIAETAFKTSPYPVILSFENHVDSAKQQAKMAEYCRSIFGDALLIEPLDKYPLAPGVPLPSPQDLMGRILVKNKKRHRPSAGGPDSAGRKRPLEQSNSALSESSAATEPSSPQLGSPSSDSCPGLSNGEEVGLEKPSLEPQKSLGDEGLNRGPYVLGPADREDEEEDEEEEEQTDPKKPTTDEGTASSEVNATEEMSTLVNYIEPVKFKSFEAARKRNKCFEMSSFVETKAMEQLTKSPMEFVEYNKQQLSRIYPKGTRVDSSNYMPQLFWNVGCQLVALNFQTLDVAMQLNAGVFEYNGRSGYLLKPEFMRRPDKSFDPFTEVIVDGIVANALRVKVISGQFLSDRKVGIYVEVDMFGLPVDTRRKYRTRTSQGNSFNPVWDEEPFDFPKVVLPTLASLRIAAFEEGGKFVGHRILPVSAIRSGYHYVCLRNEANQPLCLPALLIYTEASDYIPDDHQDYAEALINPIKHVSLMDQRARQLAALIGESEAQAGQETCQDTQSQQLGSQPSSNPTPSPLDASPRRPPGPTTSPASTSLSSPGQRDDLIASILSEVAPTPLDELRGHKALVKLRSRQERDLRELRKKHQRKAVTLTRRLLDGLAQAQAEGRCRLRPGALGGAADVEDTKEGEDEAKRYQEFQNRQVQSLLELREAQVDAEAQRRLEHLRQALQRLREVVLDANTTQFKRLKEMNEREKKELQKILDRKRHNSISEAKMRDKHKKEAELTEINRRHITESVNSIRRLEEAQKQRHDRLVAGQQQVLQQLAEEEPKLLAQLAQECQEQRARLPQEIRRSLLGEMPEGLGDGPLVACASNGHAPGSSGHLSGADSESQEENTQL
The experiment can be described thus: Fluorescence-based biochemical high throughput dose response assay to identify inhibitors of phospholipase C isozymes (PLC-B3).

A further experiment in a line: cells. The format is functional, cell-based.
The target of experiment [8] is T2, Serine/threonine-protein phosphatase (Candida dubliniensis (strain CD36 / CBS 7987 / NCPF 3949 / NRRLY-17841) (Yeast), UniProt B9W6M3).
T2 sequence (B9W6M3 whole entry): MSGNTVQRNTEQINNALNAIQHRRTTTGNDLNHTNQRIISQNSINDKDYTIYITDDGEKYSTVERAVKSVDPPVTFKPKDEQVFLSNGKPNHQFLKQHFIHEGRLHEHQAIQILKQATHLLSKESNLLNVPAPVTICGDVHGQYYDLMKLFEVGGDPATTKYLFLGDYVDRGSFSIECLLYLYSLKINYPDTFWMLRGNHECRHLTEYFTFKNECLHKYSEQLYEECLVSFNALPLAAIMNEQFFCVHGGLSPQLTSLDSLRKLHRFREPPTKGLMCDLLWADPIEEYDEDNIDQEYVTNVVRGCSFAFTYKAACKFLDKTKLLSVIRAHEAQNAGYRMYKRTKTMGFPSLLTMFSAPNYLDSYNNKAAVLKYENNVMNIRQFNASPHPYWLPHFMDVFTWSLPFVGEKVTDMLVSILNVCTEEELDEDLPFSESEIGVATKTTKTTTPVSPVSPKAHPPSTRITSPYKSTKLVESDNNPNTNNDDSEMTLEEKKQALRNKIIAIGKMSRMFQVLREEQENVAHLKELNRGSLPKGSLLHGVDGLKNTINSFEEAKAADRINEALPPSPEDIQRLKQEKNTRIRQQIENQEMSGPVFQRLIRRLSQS
The experiment can be described thus: blockers of CaCl2-induced CDRE-lacZ signaling – S. cerevisiae, luminescence, secondary, dose response (AID 2388).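 Note: yeast reporter cells carrying a calcineurin-responsive lacZ construct stimulated with calcium chloride; luminescent beta-galactosidase reporter signal in whole cells rather than isolated phosphatase activity; potency for inhibition where a drop in reporter signal means calcineurin blockade.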 The experiment is classed as functional, cell-based.

Experiment [9] has as its target T3, Zinc finger protein mex-5 (Caenorhabditis elegans, UniProt Q9XUB2).
T3 sequence (Q9XUB2 whole entry): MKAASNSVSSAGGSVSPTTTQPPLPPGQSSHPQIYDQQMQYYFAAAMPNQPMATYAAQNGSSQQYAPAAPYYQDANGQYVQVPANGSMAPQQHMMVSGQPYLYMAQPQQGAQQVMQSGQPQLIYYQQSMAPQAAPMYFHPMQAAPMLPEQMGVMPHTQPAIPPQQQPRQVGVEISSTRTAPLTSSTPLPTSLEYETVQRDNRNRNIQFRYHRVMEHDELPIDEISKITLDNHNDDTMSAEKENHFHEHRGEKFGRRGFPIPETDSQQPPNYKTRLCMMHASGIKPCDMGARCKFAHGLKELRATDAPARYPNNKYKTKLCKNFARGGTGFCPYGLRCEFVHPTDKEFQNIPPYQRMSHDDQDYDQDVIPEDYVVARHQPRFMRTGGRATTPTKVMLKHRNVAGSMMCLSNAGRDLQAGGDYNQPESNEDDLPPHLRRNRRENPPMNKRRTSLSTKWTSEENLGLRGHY
The experiment can be described thus: potency of MEX-5 RNA-binding blockers – biochemical, C. elegans, fluorescence polarization, dose response (AID 1960). A general note: In fluorescence polarisation assays a small probe gives low polarisation when free and higher when bound to something large.

Protein disulfide-isomerase A6, sequence (Q15084 whole entry): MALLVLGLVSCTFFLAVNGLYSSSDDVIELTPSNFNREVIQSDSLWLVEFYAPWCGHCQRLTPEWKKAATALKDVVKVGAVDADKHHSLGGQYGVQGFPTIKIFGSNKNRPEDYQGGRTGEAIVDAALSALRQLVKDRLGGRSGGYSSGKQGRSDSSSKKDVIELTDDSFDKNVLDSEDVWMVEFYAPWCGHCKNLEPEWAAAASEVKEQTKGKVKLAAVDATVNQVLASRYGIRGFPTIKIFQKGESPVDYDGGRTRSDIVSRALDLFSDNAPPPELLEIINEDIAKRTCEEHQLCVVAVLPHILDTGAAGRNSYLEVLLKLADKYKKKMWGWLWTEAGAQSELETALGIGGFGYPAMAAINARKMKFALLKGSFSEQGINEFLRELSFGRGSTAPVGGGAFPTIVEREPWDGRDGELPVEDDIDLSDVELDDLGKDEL
Dual specificity protein phosphatase 3, sequence (P51452 whole entry): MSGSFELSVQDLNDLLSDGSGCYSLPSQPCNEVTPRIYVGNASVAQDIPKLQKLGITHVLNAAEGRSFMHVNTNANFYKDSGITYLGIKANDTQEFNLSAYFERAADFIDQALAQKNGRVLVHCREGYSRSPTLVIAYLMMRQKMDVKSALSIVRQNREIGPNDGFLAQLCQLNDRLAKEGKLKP

The term EC50 denotes the concentration giving half of the maximal effect. For orientation: AC50 means the concentration at which the activity in the assay is half-maximal. As to `CCCCCCCCCCn1c2c(c(=N)c3c1CCC3)CCC2`, the EC50 in the experiment on BJ [1] was 5.73 µM (inconclusive); in the experiment with BJ [2], 0.706 µM (active). Also, the AC50 in experiment [3] is 1.8 µM (active).
Broadly, the IC50 is the concentration needed to halve the response being measured. Take `Cn1nc(-c2ccccn2)nc2c(=O)n(C)c(=O)nc1-2`: the IC50 was < 1.23 µM (inactive) in [4] and > 122 µM (inactive) in [7]. The AC50 in experiment [5] was 3.79 µM (active); in experiment [6] it was 1.49 µM (active).
As to `CCC(=O)NC(c1ccc(OC)cc1)c1cc(Cl)c2cccnc2c1O` (stereo not given), the EC50 in “cells” is > 350 µM (not active); in [8] it was > 180 µM (inactive).
As for `COc1ccc(NS(=O)(=O)c2ccc3c(c2)[C@H]2C=CC[C@H]2[C@@H](c2ccc(C(=O)O)cc2)N3)cc1`, in experiment [9], the EC50 was 7.88 µM (active).

The values above are taken from ChEMBL document CHEMBL1201862, “PubChem BioAssay data set” (2004).
